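In this assay, cells in 96-well plates receive the compound at five concentrations for 48 hours. Endpoints are linearly interpolated between the surrounding concentrations. Here, GI50 denotes the concentration required for 50% inhibition of growth. TGI marks complete inhibition of growth.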
Tests used:
Assay in all cases: NCI-60 cell line screen, 48 h
BT-549 breast = test system: BT-549 breast
MDA-MB-231 breast = test system: MDA-MB-231 breast
IGROV1 ovarian = test system: IGROV1 ovarian
LOX IMVI melanoma = test system: LOX IMVI melanoma
UACC-257 melanoma = test system: UACC-257 melanoma
RXF 393 renal = test system: RXF 393 renal
PC-3 prostate = test system: PC-3 prostate
SF-268 CNS = test system: SF-268 CNS
SK-OV-3 ovarian = test system: SK-OV-3 ovarian
UO-31 renal = test system: UO-31 renal

SMILES	GI50 (BT-549 breast) [µM]	TGI (BT-549 breast) [µM]	GI50 (MDA-MB-231 breast) [µM]	TGI (MDA-MB-231 breast) [µM]	GI50 (IGROV1 ovarian) [µM]	TGI (IGROV1 ovarian) [µM]	GI50 (LOX IMVI melanoma) [µM]	TGI (LOX IMVI melanoma) [µM]	GI50 (UACC-257 melanoma) [µM]	TGI (UACC-257 melanoma) [µM]	GI50 (RXF 393 renal) [µM]	TGI (RXF 393 renal) [µM]	GI50 (PC-3 prostate) [µM]	TGI (PC-3 prostate) [µM]	GI50 (SF-268 CNS) [µM]	TGI (SF-268 CNS) [µM]	GI50 (SK-OV-3 ovarian) [µM]	TGI (SK-OV-3 ovarian) [µM]	GI50 (UO-31 renal) [µM]	TGI (UO-31 renal) [µM]
CC(=O)/C(Br)=C/c1ccc(Br)o1	5.94	18.6	14.8	30	10.2	29.2	4.35	14.9	6.05	19.2	2.86	11	8.94	27.1	7.58	23.6	26.8	> 65.8	10.2	29.1
O=C1C=C(OCC=C(C(F)(F)F)C(F)(F)F)c2ccccc2C1=O	2.49	6.64	1.9	4.2	–	–	1.56	3.46	1.42	2.77	1.69	3.18	1.92	5.91	2.53	7.42	3.45	12	1.53	3.1
CC(=O)Nc1ccc(S(=O)(=O)N=S(C)C)cc1	–	> 100	–	> 100	–	> 100	–	> 100	–	> 100	–	> 100	–	> 100	–	> 100	–	> 100	–	> 100
Cc1ccc(Cl)c(NS(=O)(=O)c2ccc(-c3cnc(C4CC4)o3)cc2)c1	0.299	14.8	0.651	> 100	0.129	> 100	0.226	18.5	8.16	50.7	0.199	> 100	0.077	> 68.6	3.33	> 66.3	3.31	68.8	0.275	> 100
COc1ccc(C(=O)c2cc3c(N)c(C(=O)Nc4cccc(Br)c4C)sc3nc2C)cc1	0.123	> 100	0.13	17.3	0.0869	> 100	0.0615	> 100	> 100	> 100	0.0214	–	0.0624	> 100	0.173	> 100	0.102	> 100	0.219	> 100
COc1ccc(C2C(C#N)=C(N)Oc3c2sc2c(Br)cccc32)cc1 (centres undefined)	4.76	25.3	2.78	12.7	2.29	20.9	2.03	12.8	13.6	32.7	1.94	5.96	2.86	17.3	4.62	21.5	4.68	19.9	3.21	17.7
OC1CCCC2CCC[N-]C12.OC1CCCC2CCC[N-]C12.[O]=[V][OH] (centres undefined)	6.3	52.8	3.55	16.5	2.37	12.2	6.09	33.6	4.05	> 100	15.6	35.4	2.59	8.63	4.04	> 100	6.25	55.9	2.13	9.29
CCOc1ccc(C(C[N+](=O)[O-])Sc2ccccc2N)cc1 (centres undefined)	2.6	9.9	2.43	7.84	3.33	13.2	1.44	2.92	4.6	16.7	2.1	4.6	4.02	17.3	4.76	18.3	14.2	27.2	2.05	18.2
Clc1cccc(CNc2c3ccccc3nc3ccccc23)c1	2.34	7.19	1.91	4.75	1.91	5.46	1.53	3.08	1.92	4.25	1.35	2.85	1.64	4.65	2.54	7.88	3.12	13.2	1.14	3.13
O=C(NCCOCCOCCOCCNC(=O)c1cc2c(o1)C(=O)c1ccccc1C2=O)NC12CC3CC(CC(C3)C1)C2	1.5	3.25	3.04	16.6	2.11	8.53	0.843	3.16	1.36	2.83	1.58	3.05	1.95	13.4	2.29	6.22	2.84	7.43	1.69	3.77
CCCCOc1ccc(/C=N/Nc2cc(C)nc3ccc(Br)cc23)cc1	1.77	3.42	1.88	3.51	1.91	3.59	1.77	3.24	1.66	3.18	1.6	3.05	1.75	3.37	–	–	1.66	3.05	1.48	2.82
COc1ccccc1[As]=[As]c1ccccc1OC (centres undefined)	0.0582	0.182	0.0564	0.182	0.0414	0.209	0.0384	0.136	0.0775	0.218	0.0257	0.0644	0.0619	0.195	0.036	0.14	0.158	0.293	0.0923	0.24
O=C(Nc1cc(F)c(F)cc1C(=O)O)c1ccc(-n2ccnc2)nn1	81.9	> 100	> 100	> 100	> 100	> 100	> 100	> 100	> 100	> 100	19.6	> 100	> 100	> 100	> 100	> 100	> 100	> 100	> 100	> 100
Oc1ccc2ccccc2c1C=NCc1c(O)ccc2ccccc12	–	> 100	–	> 100	–	> 100	–	> 100	–	> 100	–	9.34	–	> 100	–	> 100	–	> 100	–	> 100
COc1ccc2c(O)c(/C=C3\N=Nc4ncccc43)oc2c1C[C@@H]1CCNC[C@H]1F	–	2.53	0.728	2.77	1.79	8.11	0.318	0.972	2.82	9.46	0.253	0.984	0.53	3.62	0.294	1.39	2.33	7.71	1.61	5.18
[N-]=[N+]=NCCCn1c2c(c3ccc([N+](=O)[O-])cc3c1=O)C(=O)c1cc(-c3ccccc3)ccc1-2	> 100	> 100	> 100	> 100	> 100	> 100	> 100	> 100	> 100	> 100	> 100	> 100	> 100	> 100	> 100	> 100	> 100	> 100	> 100	> 100
CS(=O)(=O)c1cccc(Nc2ncc3cc(-c4ccccc4Cl)ccc3n2)c1	2.11	27.8	1.37	12.2	1.1	12.4	1.06	4.54	3.24	19.3	1.05	6.24	1.79	> 33.3	1.35	> 33.3	0.883	2.99	0.803	6.41
Cc1c2ccncc2c(C)c2c1sc1ccccc12	–	35.9	–	44.1	–	21.6	–	21.5	–	47.2	–	23.9	–	26.4	–	64.3	–	34.4	–	–
O=C(/C=C/c1ccccn1)c1ccc(OCc2nnc(-c3ccc(Cl)cc3)o2)cc1	1.92	3.46	2.27	5.09	1.96	3.62	1.57	3.01	1.98	4.06	1.7	3.17	1.87	3.9	–	–	3.82	10.4	1.81	3.26
Clc1ccc2c(c1)N(C1CCCN(Cc3ccccc3)C1)c1ccccc1S2 (centres undefined)	7.39	77	3.35	13.1	–	–	6	35.8	18.3	> 100	3.69	25.3	4.4	> 100	3.8	> 100	3.36	> 100	3.12	> 100

Source: PubChem BioAssay (NCI)
